Experimental data as given in ChEMBL document CHEMBL1125927, “New isomeric classes of topically active ocular hypotensive carbonic anhydrase inhibitors: 5-substituted thieno[2,3-b]thiophene-2-sulfonamides and 5-substituted thieno[3,2-b]thiophene-2-sulfonamides” (J Med Chem, 1991).
“And” between values parts separate entries of the source, which are not always exact repeats. Identical values can stand only once.

How the values were obtained:
Oryctolagus cuniculus [1] = organism: Oryctolagus cuniculus; assay: Intraocular pressure studies in normotensive albino rabbits was performed; assay type: functional; note: test concentration or dose not given here
Oryctolagus cuniculus [2] = organism: Oryctolagus cuniculus; assay: Intraocular pressure studies were performed for the compound and compared with MK-927; assay type: functional; note: test concentration or dose not given here
Oryctolagus cuniculus [3] = organism: Oryctolagus cuniculus; assay: Intraocular pressure studies in normotensive pigmented rabbits was performed; assay type: functional; note: test concentration or dose not given here
Oryctolagus cuniculus [4] = organism: Oryctolagus cuniculus; assay: Intraocular pressure studies in hypertensive pigmented rabbits was performed; assay type: functional; note: test concentration or dose not given here
Carbonic anhydrase 2 [5] = target: T1, Carbonic anhydrase 2 (Homo sapiens, UniProt P00918)
Description: In vitro binding affinity against human carbonic anhydrase II

Carbonic anhydrase 2 [6] = target: T1, Carbonic anhydrase 2; remark: listed apart in the source
Description: In vitro inhibitory activity against human carbonic anhydrase II

physchem [7] = assay: physchem
Description: Dissociation constant (pKa)

physchem [8] = details: octanol/water, pH 7.4
Description: Partition coefficient (logD7.4)

Carbonic anhydrase 2 [9] = target: T1, Carbonic anhydrase 2; remark: listed apart in the source
Description: The compound was tested for in vitro binding affinity against human Carbonic anhydrase II

Carbonic anhydrase 2 [10] = target: T1, Carbonic anhydrase 2; remark: listed apart in the source
Description: The compound was tested for in vitro inhibitory activity against human Carbonic anhydrase II

Carbonic anhydrase 2 [11] = target: T1, Carbonic anhydrase 2; assay: The compound was tested for in vitro inhibitory activity against human carbonic anhydrase II.; details: read-out: I50
Carbonic anhydrase 2 [12] = target: T1, Carbonic anhydrase 2; assay: The compound was tested for in vitro inhibitory activity against human carbonic anhydrase II; details: read-out: I50

Description for Bos taurus: The binding to bovine iris and ciliary body pigment

Compound | Ki (Carbonic anhydrase 2 [5]) | IC50 (Carbonic anhydrase 2 [6]) | pKa (physchem [7]) | logD (physchem [8]) | Pigment binding (Bos taurus) | other results
COC(=O)CSc1sccc1C1OCCO1 |  |  |  |  |  | IOP (Oryctolagus cuniculus [1]): -1.4 mmHg; IOP (Oryctolagus cuniculus [2]): -3.9 mmHg and -4.8 mmHg; IOP (Oryctolagus cuniculus [3]): -1.6 mmHg; IOP (Oryctolagus cuniculus [4]): -2.1 mmHg
COCCOCCN(CCOC)C(Cc1ccc(F)cc1)c1cc2cc(S(N)(=O)=O)sc2s1 (centres undefined) | 6.54 nM | 1.15 nM |  |  |  | 
OCc1cc2ccsc2s1 |  |  |  |  |  | IOP (Oryctolagus cuniculus [1]): -3 mmHg
NS(=O)(=O)c1cc2cc(CN3CC[S+]([O-])CC3)sc2s1 | 3.4 nM | 4 nM | 4.23 | 0.111 |  | 
O=Cc1cc2ccsc2s1 |  |  |  |  |  | IOP (Oryctolagus cuniculus [1]): -1.3 mmHg; IOP (Oryctolagus cuniculus [3]): -1.6 mmHg
C[S+]([O-])CCNC(=O)c1cc2cc(S(N)(=O)=O)sc2s1 (centres undefined) | 2.39 nM | 4.6 nM |  | -0.155 | 35.6% | 
Cl.NS(=O)(=O)c1cc2cc(CN3CCOCC3)sc2s1 | 1.1 nM | 3 nM | 5.25 | 1.17 | 42.9% | 
CNC(=O)c1cc2cc(S(N)(=O)=O)sc2s1 |  |  | 5.2 |  |  | 
COCCN(CCNC(=O)c1cc2cc(S(N)(=O)=O)sc2s1)CCOC.Cl |  | 2.5 nM |  |  | 87.5% | 
CC(C=O)N(Cc1cc2cc(S(N)(=O)=O)sc2s1)C(C)C=O.Cl (centres undefined) |  |  | 5.75 | 1.17 | 49.7% | Ki (Carbonic anhydrase 2 [9]): 1.49 nM; IC50 (Carbonic anhydrase 2 [10]): 2.71 nM
COCCOCCN(CCOC)C(C)c1cc2cc(S(N)(=O)=O)sc2s1 (centres undefined) | 1.54 nM | 0.5 nM |  |  |  | 
COCCOCCN(CCOC)Cc1cc2cc(S(N)(=O)=O)sc2s1.Cl | 1.58 nM | 2.8 nM | 5.55 | 1.14 | 38.5% | IOP (Oryctolagus cuniculus [1]): -3.3 mmHg; IOP (Oryctolagus cuniculus [2]): -5.3 mmHg; IOP (Oryctolagus cuniculus [3]): -4.8 mmHg; IOP (Oryctolagus cuniculus [4]): -4.4 mmHg
CC(C)CNCc1cc2sc(S(N)(=O)=O)cc2s1.Cl | 2.7 nM | 2.8 nM | 7.6 | 1.24 | 86.5% | 
Cl.NS(=O)(=O)c1cc2cc(CNCCF)sc2s1 | 1.98 nM | 2.7 nM | 6.4 | 0.702 | 81.9% | 
Cl.NS(=O)(=O)c1cc2cc(C(=O)NCCN3CCSCC3)sc2s1 | 4.02 nM | 2.9 nM | 6.03 | 1.5 | 96.4% | 
COCCN(CCOC)Cc1cc2sc(S(N)(=O)=O)cc2s1.Cl | 0.95 nM | 2.5 nM | 5.48 | 1.56 | 41.4% | 
Cl.NS(=O)(=O)c1cc2cc(C(=O)NCCN3CCOCC3)sc2s1 | 6.38 nM | 2.9 nM | 5.8 | 0.587 | 91.6% | 
CNCc1cc2sc(S(N)(=O)=O)cc2s1.Cl | 11.8 nM | 3.2 nM | 7.65 | -0.495 | 87.3% | 
COCCOCCNC(C)c1cc2cc(S(N)(=O)=O)sc2s1.Cl (centres undefined) | 3.05 nM |  | 7.13 | 0.708 | 71.9% | IC50 (Carbonic anhydrase 2 [12]): 0.7 nM
NS(=O)(=O)c1cc2cc(CNCC3CC3)sc2s1 | 6.7 nM | 3.3 nM | 7.72 | 0.398 |  | 
COCCN(CCOC)Cc1cc2cc(S(N)(=O)=O)sc2s1.Cl | 1.34 nM | 4.2 nM | 5.34 | 1.58 | 50% | IOP (Oryctolagus cuniculus [1]): -2.6 mmHg; IOP (Oryctolagus cuniculus [2]): -4.6 mmHg; IOP (Oryctolagus cuniculus [3]): -4.1 mmHg
Cl.NS(=O)(=O)c1cc2cc(CN3CCSCC3)sc2s1 | 0.44 nM | 2.6 nM | 5.05 | 1.14 | 69.9% | 
COCCOCCN(CCOCCOC)Cc1cc2cc(S(N)(=O)=O)sc2s1.Cl |  |  | 5.72 | 0.992 | 40.3% | Ki (Carbonic anhydrase 2 [9]): 2.77 nM; IC50 (Carbonic anhydrase 2 [10]): 3.95 nM
CN(C)CCNC(=O)c1cc2cc(S(N)(=O)=O)sc2s1.Cl | 11 nM | 8.8 nM | 7.48 | -0.398 | 97% | 
COCCNCc1cc2sc(S(N)(=O)=O)cc2s1.Cl | 3.1 nM | 2.8 nM | 6.65 | 0.509 | 81.9% | 

Continued, in another order:

Ki (Carbonic anhydrase 2 [5]) | IC50 (Carbonic anhydrase 2 [6]) | pKa (physchem [7]) | logD (physchem [8]) | Compound | Pigment binding (Bos taurus) | other results
 | 14 nM | 7.3 |  | NCc1cc2cc(S(N)(=O)=O)sc2s1 | 92% | 
9 nM | 6.6 nM |  |  | NS(=O)(=O)c1cc2cc(C(=O)N(CCO)CCO)sc2s1 |  | 
3.4 nM | 3.2 nM |  | -0.347 | NS(=O)(=O)c1cc2cc(C(=O)NCC(O)CO)sc2s1 (centres undefined) | 36.7% | 
4.4 nM | 2.5 nM | 7.9 | 0.924 | CC(C)CNCc1cc2cc(S(N)(=O)=O)sc2s1 |  | 
 |  | 5.2 | -0.26 | CS(=O)(=O)CCNCc1cc2cc(S(N)(=O)=O)sc2s1.Cl | 56.8% | Ki (Carbonic anhydrase 2 [9]): 4.8 nM; IC50 (Carbonic anhydrase 2 [10]): 4.5 nM
36.8 nM |  | 8.28 | -0.0757 | CC(C)(C)NCc1cc2cc(S(N)(=O)=O)sc2s1 |  | IC50 (Carbonic anhydrase 2 [11]): 10 nM
 | 4.9 nM | 7.52 | 0.204 | COCCCNCc1cc2cc(S(N)(=O)=O)sc2s1.Cl | 85.4% | 
 | 8.4 nM | 6.95 |  | NS(=O)(=O)c1cc2cc(CNC(CO)CO)sc2s1 |  | 
 | 6.5 nM | 7.4 | -0.137 | COCCOCCCNCc1cc2cc(S(N)(=O)=O)sc2s1.Cl | 87.5% | 
3.9 nM | 5 nM | 7 | 0.324 | COCCNCc1cc2cc(S(N)(=O)=O)sc2s1.Cl | 88% | 
 | 6.3 nM | 7.18 | -0.721 | NS(=O)(=O)c1cc2cc(CNCCO)sc2s1 |  | 
5.5 nM | 8.4 nM | 5.58 | -0.444 | C[S+]([O-])CCNCc1cc2cc(S(N)(=O)=O)sc2s1.Cl (centres undefined) | 67.5% | 
 | 2.2 nM | 3.75 |  | Cl.NS(=O)(=O)c1cc2cc(CNCC(F)(F)F)sc2s1 | 21.1% | 
2.6 nM | 2.27 nM | 5.5 | 0.23 | Cl.NS(=O)(=O)c1cc2cc(CN(CCO)CCO)sc2s1 | 71.8% | 
 | 3 nM | 8.02 | -0.538 | CNCc1cc2cc(S(N)(=O)=O)sc2s1.Cl | 92.1% | Ki (Carbonic anhydrase 2 [9]): 20.9 nM
 | 3 nM | 7.7 | -0.678 | NS(=O)(=O)c1cc2cc(CNCCCCO)sc2s1 |  | 
